# Results as given in article PMC11292626, “5-Fluoroindole Reduces the Bacterial Burden in a Murine Model of Mycobacterium tuberculosis Infection” (ACS Omega, 2024).
# Read-outs that look alike come from different tables or passages of the source. Marks after values point to notes of the source that are not given here.
# Experiments:
# [1] = system: Mycobacterium tuberculosis H37Rv Strain; assay: MIC by resazurin reduction microplate assay (REMA), H37Rv; assay type: cell-based; conditions: Mtb H37Rv; for MIC: REMA
# [2] = Aqueous solubility at different pHs; assay type: physicochemical; conditions: thermodynamic from solid, 25 °C for 4 h
# Protocol: The compound was weighed (1 mg) and solubilized in phosphate-buffered saline (PBS, pH 7.4), HCl 0.1 M (pH 1.2), and NH4HCO3 0.1 M (pH 9.2) to a final concentration of 1 mg/mL. The solutions were kept under stirring (250 rpm) for 4h at 37 °C. The solutions were filtered ([…] PDVA filter) and analyzed by HPLC. DMSO solution 1 mg/mL was used as the control for 100% soluble.
# [3] = Metabolic stability in rat liver microsomes; assay type: in vitro ADME; conditions: rat
# Protocol: The compound was incubated at 37 °C in the concentration of 20 μM with rat liver microsomal fractions in PBS solution at pH 7.4 solution. As previously described,[31] rat liver microsomal fractions were seeded by centrifugation at 9.000 × g. To the supernatant containing the postmithocondrial with cytosolic and membrane-bound enzymes, 4 μM 5-FI was added and incubated at 37 °C. The interaction between the compound in the incubation mixture and the enzyme containing NADPH at 1 mg/mL concentration was measured by HPLC-MS/MS technique to determine the in vitro compound consumption by the microsomal fractions at 0, 5, 15, and 30 min reaction (incubation) time. The intrinsic compound clearance was taken as the half-life, and the disappearance was compared with the positive control, verapamil(2 μM).
# [4] = Chemical stability in H2O at 37 °C, open and closed system (volatility assay)
# [5] = Chemical stability at pH 1.2, 7.4 and 9.1; assay type: physicochemical; conditions: 37 °C for 24 h
# Protocol: The compounds to be tested were prepared in a 100 μM solution and incubated at 37 °C for 24 h in three solutions representing the physiologically relevant pHs to drug administration: pH 1.2 (stomach), pH 7.4 (plasma), and pH 9.2 (intestinal tissue). The compounds were quantified by HPLC-MS/MS. The chemical stability experiments were carried out in triplicates to ensure reproducibility. The results were presented as percentage, comparing the signal at time zero of the assay, considering this measure 100%, with measurements after the incubation time. Alprenolol was used as the analytical control (data not shown). The results were presented as the percentage, comparing the signal at time zero of the assay (100%) with the signal produced by concentrations after the incubation period.
# [6] = In vivo absorption assay: plasma concentration after gavage; conditions: mice, gavage 400 mg/kg
# Mtb H37Rv strain = assay: In vivo model of TB infection in mice; conditions: for lungs mean log10 CFU/mL ± SD / spleen weight mean g ± SD: gavage, single daily dose, 15 administrations; for toxicity in mice (in words): infected mice, up to 21 days
# [7] = system: tryptophan transport system of Mtb H37Rv strain; conditions: tryptophan transport system of Mtb H37Rv strain ref 27; read-out: Michaelis–Menten constant (KM); cited from earlier work
# [8] = Mycobacterium tuberculosis, H37RV, most frequent value of three independent assays
# [9] = most frequent value of three independent assays
smiles,measurement,setting,value
"N[C@@H](Cc1c[nH]c2ccc(F)cc12)C(=O)O [5-fluorotryptophan, reference compound]",MIC,"[1]; Mycobacterium tuberculosis, H37RV",> 20 µg/mL
same,MIC,[1]; [8],> 90 µM
"Clc1ccc2[nH]ccc2c1 [Compound 2, 5-chloroindole]",MIC,[1]; [9],>263.9 µM
same,MIC,[1]; [8],> 264 µM
"Brc1ccc2[nH]ccc2c1 [Compound 3, 5-bromoindole]",MIC,[1]; [9],>204.0 µM
same,MIC,[1]; [8],> 204 µM
N#Cc1ccc2[nH]ccc2c1 [Compound 4],MIC,[1]; [8],> 281 µM
O=[N+]([O-])c1ccc2[nH]ccc2c1 [Compound 5],MIC,[1]; [8],> 247 µM
Oc1ccc2[nH]ccc2c1 [Compound 6],MIC,[1]; [8],> 300 µM
COc1ccc2[nH]ccc2c1 [Compound 7],MIC,[1]; [8],> 272 µM
Fc1cccc2[nH]ccc12 [Compound 8],reduction of activity compared to 5-FI (MIC ratio),[1],approximately 4 fold
same,MIC,[1]; [8],18.5 µM
Fc1ccc2cc[nH]c2c1 [Compound 9],reduction of activity compared to 5-FI (MIC ratio),[1],more than 15 fold
same,MIC,[1]; [8],74 µM
Fc1cccc2cc[nH]c12 [Compound 10],reduction of activity compared to 5-FI (MIC ratio),[1],> 31 fold
same,MIC,[1]; [8],148 µM
"Cl.Fc1ccc2[nH]ccc2c1 [Compound 11, 5-fluoroindole hydrochloride]",solubility at 4 h,"[2]; pH 1.2, simulated gastric fluid, 0.1 M HCl, read-out: aqueous solubility pH 1.2",2.3 µM
same,solubility at 4 h,"[2]; pH 9.1, aqueous buffer, 0.1 M NH4HCO3, read-out: aqueous solubility pH 9.1",1110 µM
same,solubility at 4 h,"[2]; phosphate-buffered saline, pH 7.4, aqueous buffer, PBS, read-out: aqueous solubility pH 7.4",600 µM
same,CLint scaled,"[3]; pH 7.4, read-out: metabolic stability Clint (intrinsic clearance)",48 mL/min/kg
same,half-life,"[3]; pH 7.4, read-out: metabolic stability t1/2 (half-life)",12 min
same,"chemical stability, closed system",[4]; 0 h,100 ± 0.0%
same,"chemical stability, open system",[4]; 0 h,100 ± 0.0%
same,"chemical stability, closed system",[4]; 1 h,95.3 ± 0.1%
same,"chemical stability, open system",[4]; 1 h,97.6 ± 0.0%
same,"chemical stability, closed system",[4]; 2 h,95.0 ± 0.2%
same,"chemical stability, open system",[4]; 2 h,98.0 ± 0.1%
same,"chemical stability, closed system",[4]; 4 h,104.6 ± 0.2%
same,"chemical stability, open system",[4]; 4 h,100.3 ± 0.5%
same,"chemical stability, closed system",[4]; 6 h,97.9 ± 0.1%
same,"chemical stability, open system",[4]; 6 h,103.9 ± 0.1%
same,"chemical stability, closed system",[4]; 24 h,110.8 ± 0.2%
same,"chemical stability, open system",[4]; 24 h,113.5 ± 0.1%
same,"chemical stability, closed system",[4]; 48 h,124.1 ± 0.1%
same,"chemical stability, open system",[4]; 48 h,114.3 ± 0.0%
same,chemical stability pH 1.2,[5]; 0.1 M HCl,100%
same,chemical stability pH 9.1,[5]; 0.1 M NH4HCO3,90.5%
same,chemical stability pH 7.4,[5]; PBS,80.3%
same,chemical stability at all pH values tested,"[5]; pH 1.2, 7.4, 9.1",> 80%
same,"plasma concentration, mean ± SD",[6]; 15 min,32.6 ± 14.7 µM
same,"plasma concentration, mean ± SD",[6]; 30 min,82.3 ± 35.05 µM
same,plasma concentrations (range),"[6]; joint range over 5-FI and 5-FI.HCl, 15 and 30 min, 400 mg/kg",32.6 to 82.3 µM
same,MIC,[1]; [9],29.1 µM
same,lungs mean log10 CFU/mL ± SD,Mtb H37Rv strain; 10 μmol/kg,5.80 ± 0.20 log10 CFU/mL
same,spleen weight mean g ± SD,Mtb H37Rv strain; 10 μmol/kg,0.58 ± 0.19 g
same,lungs mean log10 CFU/mL ± SD,Mtb H37Rv strain; 30 μmol/kg,6.21 ± 0.32 log10 CFU/mL
same,spleen weight mean g ± SD,Mtb H37Rv strain; 30 μmol/kg,0.55 ± 0.23 g
same,lungs mean log10 CFU/mL ± SD,Mtb H37Rv strain; 100 μmol/kg,5.86 ± 0.67 log10 CFU/mL
same,spleen weight mean g ± SD,Mtb H37Rv strain; 100 μmol/kg,0.62 ± 0.35 g
same,number of CFUs in the lungs compared to the EC (early control) group (in words),Mtb H37Rv strain; 200 μmol/kg,significantly reduced
same,reduction of mycobacterial load in the lungs compared to vehicle group (in words),Mtb H37Rv strain; 200 μmol/kg,significantly reduce
same,lungs mean log10 CFU/mL ± SD,Mtb H37Rv strain; 200 μmol/kg,"3.68 ± 0.45***^, ### log10 CFU/mL"
same,spleen weight mean g ± SD,Mtb H37Rv strain; 200 μmol/kg,0.28 ± 0.06 g
same,reduction of CFUs in the lungs compared to vehicle group (in words),"Mtb H37Rv strain; 10, 30 and 100 μmol/kg",not able to reduce
same,toxicity in mice (in words),"Mtb H37Rv strain; 200 μmol/kg, listed as 5-FI.HCL",no evidence of a toxic effect
same,toxicity in mice (in words),"Mtb H37Rv strain; 200 μmol/kg, listed as 5-FI.HCl",no toxicity
"NNC(=O)c1ccncc1 [INH, isoniazid, reference compound]",MIC,[1]; [8],2.3 µM
same,lungs mean log10 CFU/mL ± SD,Mtb H37Rv strain; 150 μmol/kg,"2.43 ± 0.40***^, ### log10 CFU/mL"
same,spleen weight mean g ± SD,Mtb H37Rv strain; 150 μmol/kg,0.23 ± 0.04 g
"CO[C@H]1/C=C/O[C@@]2(C)Oc3c(C)c(O)c4c(O)c(c(/C=N/N5CCN(C)CC5)c(O)c4c3C2=O)NC(=O)/C(C)=C\C=C\[C@H](C)[C@H](O)[C@@H](C)[C@@H](O)[C@@H](C)[C@H](OC(C)=O)[C@@H]1C [RIF, rifampin, reference compound]",MIC,[1]; [8],0.09 µM
"N[C@@H](Cc1c[nH]c2ccccc12)C(=O)O [tryptophan, L-tryptophan]",Km,[7],1250 µM
